According to ChEMBL document CHEMBL1201861, “Genomics of Drug Sensitity in Cancer screening data, Wellcome Trust Sanger Institute”:

What was measured:
Experiment in all cases: cells
COLO-792 = type: functional, cell-based, Homo sapiens; conditions: Homo sapiens, COLO-792
Description: SANGER: Inhibition of human COLO-792 cell growth in a cell viability assay.

COLO-824 = type: functional, cell-based, Homo sapiens; conditions: Homo sapiens, COLO-824
Description: SANGER: Inhibition of human COLO-824 cell growth in a cell viability assay.

D-263MG = type: functional, cell-based, Homo sapiens; conditions: Homo sapiens, D-263MG
Description: SANGER: Inhibition of human D-263MG cell growth in a cell viability assay.

D-542MG = type: functional, cell-based, Homo sapiens; conditions: Homo sapiens, D-542MG
Description: SANGER: Inhibition of human D-542MG cell growth in a cell viability assay.

Daoy = type: functional, cell-based, Homo sapiens; conditions: Homo sapiens, Daoy;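 note: daoy cell growth inhibition, read out as cell viability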
Description: SANGER: Inhibition of human Daoy cell growth in a cell viability assay.

EFO-21 = type: functional, cell-based, Homo sapiens; conditions: Homo sapiens, EFO-21;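 note: growth inhibition of EFO-21 cells measured with a viability assay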
Description: SANGER: Inhibition of human EFO-21 cell growth in a cell viability assay.

ES7 = type: functional, cell-based, Homo sapiens; conditions: Homo sapiens, ES7;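 note: growth inhibition of cultured human ES7 cells, read out as cell viability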
Description: SANGER: Inhibition of human ES7 cell growth in a cell viability assay.

ES8 = type: functional, cell-based, Homo sapiens; conditions: Homo sapiens, ES8;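 note: growth inhibition of human ES8 cells, read out with a cell viability assay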
Description: SANGER: Inhibition of human ES8 cell growth in a cell viability assay.

EW-1 = type: functional, cell-based, Homo sapiens; conditions: Homo sapiens, EW-1
Description: SANGER: Inhibition of human EW-1 cell growth in a cell viability assay.

EW-13 = type: functional, cell-based; conditions: Homo sapiens;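 note: growth inhibition of EW-13 cells, read out with a cell viability assay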
Description: SANGER: Inhibition of human EW-13 cell growth in a cell viability assay.

HCC1806 = type: functional, cell-based, Homo sapiens; conditions: Homo sapiens, HCC1806;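 note: growth inhibition of the cancer cell line, determined with a cell viability assay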
Description: SANGER: Inhibition of human HCC1806 cell growth in a cell viability assay.

HCC1937 = type: functional, cell-based, Homo sapiens; conditions: Homo sapiens, HCC1937;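 note: growth inhibition measured with a cell viability read-out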
Description: SANGER: Inhibition of human HCC1937 cell growth in a cell viability assay.

HCC70 = type: functional, cell-based, Homo sapiens; conditions: Homo sapiens, HCC70;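 note: cell viability assay measuring how strongly the compound suppresses proliferation of HCC70 cells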
Description: SANGER: Inhibition of human HCC70 cell growth in a cell viability assay.

HD-MY-Z = type: functional, cell-based, Homo sapiens; conditions: Homo sapiens, HD-MY-Z;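 note: growth inhibition of HD-MY-Z cells, read out with a cell viability assay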
Description: SANGER: Inhibition of human HD-MY-Z cell growth in a cell viability assay.

HGC-27 = type: functional, cell-based, Homo sapiens; conditions: Homo sapiens, HGC-27;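 note: growth inhibition of human HGC-27 cells, read out in a cell viability assay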
Description: SANGER: Inhibition of human HGC-27 cell growth in a cell viability assay.

HOP-62 = type: functional, cell-based, Homo sapiens; conditions: Homo sapiens, HOP-62;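 note: cell growth inhibition determined with a viability assay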
Description: SANGER: Inhibition of human HOP-62 cell growth in a cell viability assay.

HuO-3N1 = type: functional, cell-based, Homo sapiens; conditions: Homo sapiens, HuO-3N1;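 note: cell viability readout used to measure how strongly compounds suppress proliferation of human HuO-3N1 cells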
Description: SANGER: Inhibition of human HuO-3N1 cell growth in a cell viability assay.

J82 = type: functional, cell-based; conditions: Homo sapiens;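 note: growth inhibition of J82 cells, read out with a cell viability assay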
Description: SANGER: Inhibition of human J82 cell growth in a cell viability assay.

KU812 cell line = type: functional, cell-based; conditions: Homo sapiens;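 note: growth inhibition of KU812 cells, read out with a cell viability assay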
Description: SANGER: Inhibition of human KU812 cell growth in a cell viability assay.

KYSE-270 = type: functional, cell-based, Homo sapiens; conditions: Homo sapiens, KYSE-270;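 note: cell growth inhibition measured with a viability assay in the human KYSE-270 line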
Description: SANGER: Inhibition of human KYSE-270 cell growth in a cell viability assay.

LoVo = type: functional, cell-based; conditions: Homo sapiens;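 note: growth inhibition of human LoVo cells, read out with a cell viability assay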
Description: SANGER: Inhibition of human LoVo cell growth in a cell viability assay.

MDA-MB-157 = type: functional, cell-based, Homo sapiens; conditions: Homo sapiens, MDA-MB-157
Description: SANGER: Inhibition of human MDA-MB-157 cell growth in a cell viability assay.

MDA-MB-231 = type: functional, cell-based, Homo sapiens; conditions: Homo sapiens, MDA-MB-231
Description: SANGER: Inhibition of human MDA-MB-231 cell growth in a cell viability assay.

MG-63 = type: functional, cell-based, Homo sapiens; conditions: Homo sapiens, MG-63;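 note: growth inhibition of human MG-63 cells, read out with a cell viability assay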
Description: SANGER: Inhibition of human MG-63 cell growth in a cell viability assay.

MKN-7 = type: functional, cell-based, Homo sapiens; conditions: Homo sapiens, MKN-7;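 note: growth inhibition of MKN-7 cells, read out with a cell viability assay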
Description: SANGER: Inhibition of human MKN7 cell growth in a cell viability assay.

MOLT-4 = type: functional, cell-based; conditions: Homo sapiens;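 note: growth inhibition of MOLT-4 cells, determined with a cell viability readout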
Description: SANGER: Inhibition of human MOLT-4 cell growth in a cell viability assay.

NCI-H1155 = type: functional, cell-based; conditions: Homo sapiens;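 note: cell growth inhibition measured by a viability assay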
Description: SANGER: Inhibition of human NCI-H1155 cell growth in a cell viability assay.

NCI-H1355 = type: functional, cell-based, Homo sapiens; conditions: Homo sapiens, NCI-H1355;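 note: growth inhibition of human NCI-H1355 cells, read out by a cell viability assay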
Description: SANGER: Inhibition of human NCI-H1355 cell growth in a cell viability assay.

NCI-H2030 = type: functional, cell-based, Homo sapiens; conditions: Homo sapiens, NCI-H2030;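 note: growth inhibition of human NCI-H2030 cells, read out by a cell viability assay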
Description: SANGER: Inhibition of human NCI-H2030 cell growth in a cell viability assay.

NCI-H28 = type: functional, cell-based, Homo sapiens; conditions: Homo sapiens, NCI-H28;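 note: growth inhibition of human NCI-H28 cells, read out as cell viability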
Description: SANGER: Inhibition of human NCI-H28 cell growth in a cell viability assay.

NTERA-2-cl-D1 = type: functional, cell-based, Homo sapiens; conditions: Homo sapiens, NTERA-2-cl-D1;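 note: inhibition of cell growth, measured with a cell viability assay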
Description: SANGER: Inhibition of human NTERA-S-cl-D1 cell growth in a cell viability assay.

PANC-03-27 = type: functional, cell-based, Homo sapiens; conditions: Homo sapiens, PANC-03-27
Description: SANGER: Inhibition of human PANC-03-27 cell growth in a cell viability assay.

RMG-I = type: functional, cell-based, Homo sapiens; conditions: Homo sapiens, RMG-I;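 note: growth inhibition of human RMG-I cells, read out with a cell viability assay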
Description: SANGER: Inhibition of human RMG-I cell growth in a cell viability assay.

RO82-W-1 = type: functional, cell-based, Homo sapiens; conditions: Homo sapiens, RO82-W-1;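 note: growth inhibition of human RO82-W-1 cells, measured with a cell viability assay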
Description: SANGER: Inhibition of human RO82-W-1 cell growth in a cell viability assay.

SNU-C2B = type: functional, cell-based, Homo sapiens; conditions: Homo sapiens, SNU-C2B;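 note: cell viability readout used to measure compound-driven suppression of SNU-C2B cell proliferation, IC50 marking half-maximal growth inhibition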
Description: SANGER: Inhibition of human SNU-C2B cell growth in a cell viability assay.

SW1088 = type: functional, cell-based, Homo sapiens; conditions: Homo sapiens, SW1088;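 note: growth inhibition of human SW1088 cells, read out by a cell viability assay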
Description: SANGER: Inhibition of human SW1088 cell growth in a cell viability assay.

SW48 = type: functional, cell-based, Homo sapiens; conditions: Homo sapiens, SW48;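 note: growth inhibition of SW48 cells, read out with a cell viability assay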
Description: SANGER: Inhibition of human SW48 cell growth in a cell viability assay.

SW982 = type: functional, cell-based; conditions: Homo sapiens;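 note: growth inhibition of SW982 cells, read out with a cell viability assay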
Description: SANGER: Inhibition of human SW982 cell growth in a cell viability assay.

769-P = type: functional, cell-based, Homo sapiens; conditions: Homo sapiens, 769-P
Description: SANGER: Inhibition of human 769-P cell growth in a cell viability assay.

A2058 = type: functional, cell-based; conditions: Homo sapiens;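 note: reduction of A2058 cell growth, read out with a viability assay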
Description: SANGER: Inhibition of human A2058 cell growth in a cell viability assay.

ABC-1 = type: functional, cell-based, Homo sapiens; conditions: Homo sapiens, ABC-1;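 note: growth inhibition of human ABC-1 cells, read out by a cell viability assay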
Description: SANGER: Inhibition of human ABC-1 cell growth in a cell viability assay.

BT-474 = type: functional, cell-based, Homo sapiens; conditions: Homo sapiens, BT-474
Description: SANGER: Inhibition of human BT-474 cell growth in a cell viability assay.

C2BBe1 = type: functional, cell-based, Homo sapiens; conditions: Homo sapiens, C2BBe1;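 note: growth inhibition of C2BBe1 cells, read out through a viability assay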
Description: SANGER: Inhibition of human C2BBe1 cell growth in a cell viability assay.

CAKI-1 = type: functional, cell-based, Homo sapiens; conditions: Homo sapiens, CAKI-1;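 note: growth inhibition of CAKI-1 cells, measured by a cell viability assay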
Description: SANGER: Inhibition of human CAKI-1 cell growth in a cell viability assay.

TE-6 = type: functional, cell-based, Homo sapiens; conditions: Homo sapiens, TE-6;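 note: growth inhibition of TE-6 cells, read out with a cell viability assay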
Description: SANGER: Inhibition of human TE-6 cell growth in a cell viability assay.

TYK-nu = type: functional, cell-based, Homo sapiens; conditions: Homo sapiens, TYK-nu;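 note: growth inhibition of human TYK-nu cells, read out by a cell viability assay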
Description: SANGER: Inhibition of human TYK-nu cell growth in a cell viability assay.

YAPC = type: functional, cell-based, Homo sapiens; conditions: Homo sapiens, YAPC;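 note: growth inhibition of YAPC cells, measured with a cell viability assay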
Description: SANGER: Inhibition of human YAPC cell growth in a cell viability assay.

COLO-320-HSR = type: functional, cell-based; conditions: Homo sapiens;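 note: growth inhibition of COLO-320-HSR cells, determined with a cell viability assay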
Description: SANGER: Inhibition of human COLO-320-HSR cell growth in a cell viability assay.

COLO-668 = type: functional, cell-based, Homo sapiens; conditions: Homo sapiens, COLO-668
Description: SANGER: Inhibition of human COLO-668 cell growth in a cell viability assay.

COLO-680N = type: functional, cell-based, Homo sapiens; conditions: Homo sapiens, COLO-680N;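 note: cell viability assay used to measure inhibition of COLO-680N cell growth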
Description: SANGER: Inhibition of human COLO-680N cell growth in a cell viability assay.

Which results are given for `Cn1cncc1[C@@](N)(c1ccc(Cl)cc1)c1ccc2c(c1)c(-c1cccc(Cl)c1)cc(=O)n2C` [TIPIFARNIB]?
IC50 (COLO-792): 12200 nM; IC50 (COLO-824): > 16000 nM; IC50 (D-263MG): > 16000 nM; IC50 (D-542MG): 1410 nM; IC50 (Daoy): 57.5 nM; IC50 (EFO-21): 4260 nM; IC50 (ES7): 1470 nM; IC50 (ES8): 10400 nM; IC50 (EW-1): 12300 nM; IC50 (EW-13): 6480 nM; IC50 (HCC1806): 11900 nM; IC50 (HCC1937): 9020 nM; IC50 (HCC70): 1050 nM; IC50 (HD-MY-Z): > 16000 nM; IC50 (HGC-27): 1320 nM; IC50 (HOP-62): 3210 nM; IC50 (HuO-3N1): 4170 nM; IC50 (J82): 4180 nM; IC50 (KU812 cell line): 97.1 nM; IC50 (KYSE-270): 217 nM; IC50 (LoVo): 241 nM; IC50 (MDA-MB-157): 14700 nM; IC50 (MDA-MB-231): 5830 nM; IC50 (MG-63): 1840 nM; IC50 (MKN-7): > 16000 nM; IC50 (MOLT-4): 4910 nM; IC50 (NCI-H1155): > 16000 nM; IC50 (NCI-H1355): 974 nM; IC50 (NCI-H2030): 2350 nM; IC50 (NCI-H28): > 16000 nM; IC50 (NTERA-2-cl-D1): 237 nM; IC50 (PANC-03-27): 5730 nM; IC50 (RMG-I): > 16000 nM; IC50 (RO82-W-1): > 16000 nM; IC50 (SNU-C2B): 10400 nM; IC50 (SW1088): 8570 nM; IC50 (SW48): 8610 nM; IC50 (SW982): > 16000 nM; IC50 (769-P): 4190 nM; IC50 (A2058): 11800 nM; IC50 (ABC-1): 3210 nM; IC50 (BT-474): > 16000 nM; IC50 (C2BBe1): > 16000 nM; IC50 (CAKI-1): > 16000 nM; IC50 (TE-6): 7210 nM; IC50 (TYK-nu): > 16000 nM; IC50 (YAPC): > 16000 nM; IC50 (COLO-320-HSR): 13600 nM; IC50 (COLO-668): 3390 nM; IC50 (COLO-680N): 5630 nM

For `CCC1=C[C@@H]2CN(C1)Cc1c([nH]c3ccccc13)[C@@](C(=O)OC)(c1cc3c(cc1OC)N(C)[C@H]1[C@@](O)(C(=O)OC)[C@H](OC(C)=O)[C@]4(CC)C=CCN5CC[C@]31[C@@H]54)C2` [VINORELBINE], which IC50 (COLO-792) is on record?
The IC50 was over 64 nM.

And the IC50 (COLO-824)?
The IC50 was 47.2 nM.

What about the IC50 (D-263MG) of the same molecule?
Its IC50 is over 64 nM.

What about the IC50 (D-542MG) of the same molecule?
Its IC50 is over 64 nM.

And the IC50 (Daoy)?
Its IC50 is 6.65 nM.

And the IC50 (EFO-21)?
Its IC50 is 21.7 nM.

And the IC50 (ES7)?
The IC50 was 3.86 nM.

And the IC50 (ES8)?
The IC50 was 2.72 nM.

And the IC50 (EW-1)?
The IC50 was 3.93 nM.

And the IC50 (EW-13)?
Its IC50 is 6.62 nM.

What about the IC50 (HCC1806) of the same molecule?
The IC50 was 23.9 nM.

What about the IC50 (HCC1937) of the same molecule?
Its IC50 is over 64 nM.

What about the IC50 (HCC70) of the same molecule?
The IC50 was 30.6 nM.

What about the IC50 (HD-MY-Z) of the same molecule?
The IC50 was 29.2 nM.

And the IC50 (HGC-27)?
Its IC50 is 1.85 nM.

And the IC50 (HOP-62)?
Its IC50 is 1.93 nM.

And the IC50 (HuO-3N1)?
The IC50 was 13 nM.

And the IC50 (J82)?
The IC50 was over 64 nM.

What about the IC50 (KU812 cell line) of the same molecule?
Its IC50 is 9.3 nM.

And the IC50 (KYSE-270)?
The IC50 was 3.16 nM.

And the IC50 (LoVo)?
The IC50 was 7.9 nM.

And the IC50 (MDA-MB-157)?
Its IC50 is over 64 nM.

What about the IC50 (MDA-MB-231) of the same molecule?
The IC50 was 37.4 nM.

And the IC50 (MG-63)?
Its IC50 is 2.94 nM.

What about the IC50 (MKN-7) of the same molecule?
Its IC50 is over 64 nM.

And the IC50 (MOLT-4)?
The IC50 was 6.66 nM.

And the IC50 (NCI-H1155)?
The IC50 was over 64 nM.

What about the IC50 (NCI-H1355) of the same molecule?
Its IC50 is 2.9 nM.

What about the IC50 (NCI-H2030) of the same molecule?
The IC50 was 3.62 nM.

What about the IC50 (NCI-H28) of the same molecule?
The IC50 was over 64 nM.

And the IC50 (NTERA-2-cl-D1)?
The IC50 was 0.939 nM.

What about the IC50 (PANC-03-27) of the same molecule?
Its IC50 is 5.95 nM.

What about the IC50 (RMG-I) of the same molecule?
Its IC50 is over 64 nM.

What about the IC50 (RO82-W-1) of the same molecule?
Its IC50 is over 64 nM.

And the IC50 (SNU-C2B)?
Its IC50 is 7.75 nM.

And the IC50 (SW1088)?
The IC50 was over 64 nM.

And the IC50 (SW48)?
Its IC50 is 5.8 nM.

What about the IC50 (SW982) of the same molecule?
The IC50 was 5.3 nM.

And the IC50 (769-P)?
Its IC50 is 16.9 nM.

What about the IC50 (A2058) of the same molecule?
Its IC50 is 3.5 nM.

What about the IC50 (ABC-1) of the same molecule?
The IC50 was 3.02 nM.

And the IC50 (BT-474)?
Its IC50 is 28.5 nM.

And the IC50 (C2BBe1)?
Its IC50 is over 64 nM.

And the IC50 (CAKI-1)?
The IC50 was over 64 nM.

And the IC50 (TE-6)?
The IC50 was over 64 nM.

What about the IC50 (TYK-nu) of the same molecule?
The IC50 was over 64 nM.

What about the IC50 (YAPC) of the same molecule?
Its IC50 is over 64 nM.

What about the IC50 (COLO-320-HSR) of the same molecule?
Its IC50 is over 64 nM.

And the IC50 (COLO-668)?
The IC50 was 28.5 nM.

What about the IC50 (COLO-680N) of the same molecule?
The IC50 was 53.3 nM.
